This is an account of results in ChEMBL document CHEMBL4732128, “Methylsulfanylpyridine based diheteroaryl isocombretastatin analogs as potent anti-proliferative agents” (Eur J Med Chem, 2021).

In brackets after ≈: the same amount, converted by molar mass.

Data set [1] relates to HL-60. Description: Antiproliferative activity against human HL-60 cells assessed as inhibition of cell growth after 72 hrs by XTT assay. The following applies: HL-60, 72 h. It is filed as functional, cell-based. (Tetrazolium dyes change colour on reduction, which living cells bring about.)
Data set [2] can be described thus: Aqueous solubility of the compound in pH 7.0 phosphate buffer at 2 mg incubated for 72 hrs by shake flask method. Format: physicochemical.
Data set [3] relates to HeLa. The experiment in a line: Antiproliferative activity against human HeLa cells assessed as inhibition of cell growth after 72 hrs by XTT assay. It is filed as functional, cell-based.
Data set [4] relates to HT-29. The experiment in a line: Antiproliferative activity against human HT-29 cells assessed as inhibition of cell growth after 72 hrs by XTT assay. It is filed as functional, cell-based. The following applies: HT-29, 72 h.
Data set [5] is described as follows: Inhibition of bovine brain tubulin polymerization incubated for 30 mins by turbidimetric assay. It is filed as tissue-based, Bos taurus.

In general, IC50 refers to the concentration that inhibits the measured activity by half. Broadly, the thermodynamic solubility is solubility found after equilibrating the solid with the medium. As for `CSc1cc(C(=O)c2ccc(N(C)C)nc2)cc(SC)n1`, the IC50 in data set [1] is no less than 10 nM; in data set [3], no less than 10 nM; in data set [4], no less than 10 nM; in data set [5], greater than 5000 nM. This compound also showed a thermodynamic solubility at 72 h in data set [2] of 47.1 µg/mL (≈ 147 µM).

On to `C=C(c1cc(Cl)nc(SC)c1)c1ccc2c(ccn2C)c1`, for which the IC50 in data set [1] was 416 nM; in data set [3] it was 176 nM; in data set [4], 511 nM; in data set [5], 300 nM. Also, the solubility (thermodynamic) at 72 h in data set [2] was found to be 12.3 µg/mL (≈ 39.1 µM).

On to `C=C(c1cc(Cl)nc(SC)c1)c1ccc2c(c1)c(C(=O)O)cn2C`, for which the IC50 in data set [1] is no less than 10 nM; in data set [3], no less than 10 nM; in data set [4], no less than 10 nM; in data set [5], greater than 5000 nM.

Regarding `CSc1cc(C(=O)c2ccc(N(C)C)cc2)cc(SC)n1`, the IC50 in data set [1] was 435 nM; in data set [3] it was 652 nM; in data set [4], 787 nM; in data set [5], greater than 5000 nM. In data set [2], the solubility (thermodynamic) at 72 h was 1 µg/mL (≈ 3.14 µM).

Consider `C=C(c1ccc(OC)cc1)c1cc(Cl)nc(SC)c1`, for which the IC50 in data set [1] worked out at 464 nM; in data set [3], 628 nM; in data set [4] it was 485 nM; in data set [5], 1500 nM. The solubility (thermodynamic) at 72 h in data set [2] was 48.9 µg/mL (≈ 168 µM).

For `CSc1cc(C(=O)c2cccc(N(C)C)c2)cc(SC)n1`, the IC50 is no less than 10 nM in data set [1], no less than 10 nM in data set [3], no less than 10 nM in data set [4] and greater than 5000 nM in data set [5]. Further, the thermodynamic solubility at 72 h in data set [2] turned out to be 1.3 µg/mL (≈ 4.08 µM).

For `CSc1cc(C(=O)c2ccc3c(ccn3C)c2)cc(SC)n1`, the IC50 in data set [1] is 222 nM; in data set [3], 233 nM; in data set [4], 549 nM; in data set [5], 1700 nM.

For `COc1ccc(C(=O)c2cc(SC)nc(SC)c2)cc1`, the IC50 in data set [1] is no less than 10000 nM; in data set [3], no less than 10000 nM; in data set [4], no less than 10000 nM; in data set [5], greater than 5000 nM. In data set [2], this compound yielded a solubility (thermodynamic) at 72 h of 1.5 µg/mL (≈ 4.91 µM).

Take `C=C(c1cc(SC)nc(SC)c1)c1ccc2c(c1)c(C(N)=O)cn2C`: the IC50 was 223 nM in data set [1], 601 nM in data set [3], 276 nM in data set [4] and 2400 nM in data set [5].

Turning to `CSc1cc(C(=NO)c2ccc(N(C)C)cc2)cc(SC)n1`, the IC50 is 213 nM in data set [1], 269 nM in data set [3], 781 nM in data set [4] and 2100 nM in data set [5]. In data set [2], the thermodynamic solubility at 72 h is 1.1 µg/mL (≈ 3.3 µM).

`COc1ccc(/C=C\c2cc(SC)nc(SC)c2)cc1`: the IC50 in data set [1] was no less than 10 nM; in data set [3], no less than 10 nM; in data set [4] it was no less than 10 nM; in data set [5], 3800 nM.

Take `CSc1cc(C(=NO)c2ccc3ccccc3c2)cc(SC)n1`: the IC50 in data set [1] is no less than 10 nM; in data set [3], no less than 10 nM; in data set [4] it was no less than 10 nM; in data set [5], greater than 5000 nM.

As for `CSc1cc(C(=O)c2ccc3ccccc3c2)cc(SC)n1`, the IC50 in data set [1] was no less than 10 nM; in data set [3], no less than 10 nM; in data set [4] it was no less than 10 nM; in data set [5], greater than 5000 nM.

As to `CSc1cc(C(=NO)c2cccc(N(C)C)c2)cc(SC)n1`, the 50% inhibitory concentration (IC50) in data set [1] was no less than 10 nM; in data set [3], no less than 10 nM; in data set [4], no less than 10 nM; in data set [5], greater than 5000 nM. In data set [2], this compound gave a thermodynamic solubility at 72 h of 14.7 µg/mL (≈ 44.1 µM).

Regarding `CSc1cc(C(O)c2ccc(N(C)C)nc2)cc(SC)n1` (stereo unspecified), the IC50 in data set [1] is no less than 10 nM; in data set [3], no less than 10 nM; in data set [4], no less than 10 nM; in data set [5], greater than 5000 nM.

As to `C=C(c1cc(SC)nc(SC)c1)c1ccc2c(ccn2C)c1`, the IC50 in data set [1] worked out at 717 nM; in data set [3] it was 520 nM; in data set [4] it was 249 nM; in data set [5], 1100 nM.

Turning to `C=C(c1ccc(OC)cc1)c1cc(SC)nc(SC)c1`, the IC50 in data set [1] is 306 nM; in data set [3], 399 nM; in data set [4], 550 nM; in data set [5] it was 2000 nM. Further, in data set [2], the thermodynamic solubility at 72 h is 35.7 µg/mL (≈ 118 µM).

Take `C=C(c1cccc(N(C)C)c1)c1cc(SC)nc(SC)c1`: the IC50 is no less than 10 nM in data set [1], no less than 10 nM in data set [3], no less than 10 nM in data set [4] and greater than 5000 nM in data set [5]. Moreover, in data set [2], the solubility (thermodynamic) at 72 h amounted to 2.4 µg/mL (≈ 7.58 µM).

Regarding `CSc1cc(C(O)c2ccc(N(C)C)cc2)cc(SC)n1` (stereo unspecified), the IC50 in data set [1] was no less than 10 nM; in data set [3], no less than 10 nM; in data set [4], no less than 10 nM; in data set [5], greater than 5000 nM.

For `C=C(c1cc(Cl)nc(SC)c1)c1ccc2c(c1)c(C#N)cn2C`, the IC50 in data set [1] amounted to 74 nM; in data set [3], 158 nM; in data set [4], 278 nM; in data set [5], 600 nM. Also, the thermodynamic solubility at 72 h in data set [2] was 3.2 µg/mL (≈ 9.42 µM).

`COc1ccc(C(=O)c2cc(Cl)nc(SC)c2)cc1`: the IC50 in data set [1] was no less than 10000 nM; in data set [3], no less than 10000 nM; in data set [4] it was no less than 10000 nM; in data set [5], greater than 5000 nM.

On to `CCOC(=O)C(O)(c1ccc(OC)cc1)c1cc(Cl)nc(SC)c1` (stereo unspecified), for which the IC50 in data set [1] is no less than 10 nM; in data set [3], no less than 10 nM; in data set [4] it was no less than 10 nM; in data set [5], greater than 5000 nM.

For `COc1ccc(C(=NO)c2cc(SC)nc(SC)c2)cc1`, the IC50 in data set [1] was found to be 299 nM; in data set [3] it was 457 nM; in data set [4], 292 nM; in data set [5], 3000 nM.

Regarding `COc1ccc(S(=O)(=O)Nc2cccnc2Nc2ccc(O)cc2)cc1` [ABT-751], the IC50 came out at 388 nM in data set [3], 514 nM in data set [4] and 4000 nM in data set [5].

In the case of `CSc1cc(C(O)c2ccc3c(ccn3C)c2)cc(SC)n1` (stereo unspecified), the IC50 in data set [1] was no less than 10000 nM; in data set [3] it was no less than 10000 nM; in data set [4], no less than 10 nM; in data set [5], greater than 5000 nM.

Regarding `COc1ccc(C(=NO)c2cc(Cl)nc(SC)c2)cc1`, the IC50 was 613 nM in data set [1], 518 nM in data set [3], no less than 10000 nM in data set [4] and 4600 nM in data set [5]. This compound had a thermodynamic solubility at 72 h in data set [2] of 41.7 µg/mL (≈ 135 µM).

For the compound `CSc1cc(C(=NO)c2ccc3c(ccn3C)c2)cc(Cl)n1`, the IC50 was 257 nM in data set [1], 365 nM in data set [3], no less than 10 nM in data set [4] and greater than 5000 nM in data set [5]. The same compound yielded a thermodynamic solubility at 72 h in data set [2] of 14.8 µg/mL (≈ 44.6 µM).

With `CSc1cc(C(=O)c2ccc3c(c2)c(C=O)cn3C)cc(SC)n1`, the concentration for half-maximal inhibition (IC50) in data set [1] is no less than 10 nM; in data set [3], no less than 10 nM; in data set [4], no less than 10 nM; in data set [5] it was greater than 5000 nM. This compound had a solubility (thermodynamic) at 72 h in data set [2] of 230 µg/mL (≈ 646 µM).

With `CSc1cc(C(=NO)c2ccc3c(ccn3C)c2)cc(SC)n1`, the IC50 was found to be 240 nM in data set [1], 590 nM in data set [3], 745 nM in data set [4] and 1000 nM in data set [5].

Consider `COc1ccc(C(C)c2cc(SC)nc(SC)c2)cc1` (stereo unspecified), for which the IC50 in data set [1] was no less than 10000 nM; in data set [3], no less than 10000 nM; in data set [4] it was no less than 10000 nM; in data set [5], greater than 5000 nM.

Take `C=C(c1ccc(N(C)C)cc1)c1cc(SC)nc(SC)c1`: the IC50 in data set [1] was found to be 486 nM; in data set [3] it was 328 nM; in data set [4], 928 nM; in data set [5] it was 3800 nM. Further, in data set [2], the thermodynamic solubility at 72 h was determined as 6.9 µg/mL (≈ 21.8 µM).

On to `CSc1cc(/C=C\c2ccc3c(ccn3C)c2)cc(SC)n1`, for which the IC50 was no less than 10 nM in data set [1], no less than 10 nM in data set [3], 633 nM in data set [4] and greater than 5000 nM in data set [5].

As to `COc1ccc(/C=C\c2cc(OC)c(OC)c(OC)c2)cc1O` [COMBRETASTATIN A4], the IC50 turned out to be 305 nM in data set [4] and 2800 nM in data set [5].

For `C=C(c1cc(SC)nc(SC)c1)c1ccc2c(c1)c(C(=O)O)cn2C`, the IC50 in data set [1] is no less than 10 nM; in data set [3], no less than 10 nM; in data set [4], no less than 10 nM; in data set [5], 4700 nM. Besides, the thermodynamic solubility at 72 h in data set [2] stood at 103 µg/mL (≈ 277 µM).

For the compound `C=C(c1cc(SC)nc(SC)c1)c1ccc2ccccc2c1`, the IC50 in data set [1] was no less than 10 nM; in data set [3], no less than 10 nM; in data set [4], no less than 10 nM; in data set [5] it was greater than 5000 nM. In data set [2], this compound gave a solubility (thermodynamic) at 72 h of 1.9 µg/mL (≈ 5.87 µM).

For `C=C(c1cc(Cl)nc(SC)c1)c1ccc2c(c1)c(C(N)=O)cn2C`, the IC50 in data set [1] is 44 nM; in data set [3] it was 82 nM; in data set [4], 38 nM; in data set [5] it was 2300 nM.

As for `C=C(c1cc(SC)nc(SC)c1)c1ccc2c(c1)c(C#N)cn2C`, the IC50 in data set [1] was 604 nM; in data set [3], 579 nM; in data set [4] it was 587 nM; in data set [5], 400 nM. In data set [2], the solubility (thermodynamic) at 72 h is 46.3 µg/mL (≈ 132 µM).

For the compound `CSc1cc(C(=O)c2ccc3c(c2)c(C=O)cn3C)cc(Cl)n1`, the IC50 in data set [1] was no less than 10 nM; in data set [3], no less than 10 nM; in data set [4], no less than 10 nM; in data set [5], greater than 5000 nM.

Regarding `C=C(c1cc(SC)nc(SC)c1)c1ccc2c(c1)c(C=O)cn2C`, the IC50 in data set [1] stood at 303 nM; in data set [3] it was 64 nM; in data set [4], 573 nM; in data set [5], 1200 nM. Further, the solubility (thermodynamic) at 72 h in data set [2] is 7.6 µg/mL (≈ 21.4 µM).

`CSc1cc(C(=O)c2ccc3c(ccn3C)c2)cc(Cl)n1`: the IC50 in data set [1] is 490 nM; in data set [3] it was 388 nM; in data set [4], no less than 10 nM; in data set [5] it was 2400 nM.
